Series [1] is described as follows: Cytotoxicity assay in replicon cells (MTS). It is filed as cell-based. The note with it: HCV replicon cells (1b-Con1), three days post dosing, head prints EDU, method MTS, read-out: CC50 (EDU) Range. Here is the method:
(§1) To measure cell-based anti-HCV activity of the compounds of the present invention, replicon cells (1b-Con1) are seeded at 5000 cells/well in 96-well plates one day prior to treatment with a compound of the invention. Various concentrations of a test compound of the invention in DMSO are then added to the replicon cells, with the final concentration of DMSO at 0.5% and fetal bovine serum at 10% in the assay media. Cells are harvested three days post-dosing, and the replicon RNA level is determined using real-time RT-PCR (Taqman assay) with GAPDH RNA as endogenous control. EC50 values are calculated from experiments with 10 serial twofold dilutions of the inhibitor in triplicate. To measure cytotoxicity in replicon cells of an inhibitor, an MTS assay is performed according to the manufacturer's protocol for CellTiter 96 Aqueous One Solution Cell Proliferation Assay (Promega, Cat #G3580) three days post dosing on cells treated identically as in replicon activity assays. […] Cytotoxicity in other types of cells may be measured using the same MTS protocol.
(§2) Data were obtained using this method for selected compounds of the present invention, and are set forth below in Table 2.
On the technique in general: Replicon systems follow genome replication, usually without infectious particles.

Series [2] deals with HCV replicon cells (1b-Con1). The experiment in a line: Replicon activity assay (cell-based anti-HCV activity). The note with it: Hepatitis C virus, 72 h, three days post-dosing, replicon RNA level by real-time RT-PCR, read-out: EC50 (1b) Range. How it is done: as §1, §2

As usually defined, the CC50 is the concentration that lowers cell viability or growth by half. As usually defined, the EC50 is the concentration at which the effect is half-maximal.

On to `C#C[C@]1(C)[C@@H]2O[P@@](=O)(OCCCCC(=O)OC3CCCC3)OC[C@H]2O[C@H]1n1ccc(=O)[nH]c1=O` [Compound 16A], for which the half-maximal cytotoxic concentration (CC50) at 3 days in series [1] was > 50 µM. The EC50 in series [2] was > 10 µM.

Take `C#C[C@@]1(O)[C@@H]2O[P@@](=O)(OCCCC(=O)OC(C)C)OC[C@H]2O[C@H]1n1ccc(=O)[nH]c1=O` [Compound 13A]: the CC50 at 3 days in series [1] was > 50 µM. For the same molecule, the EC50 in series [2] was > 10 µM.

In the case of `C#C[C@]1(C)[C@@H]2O[P@@](=O)(OCCCCC(=O)OCC)OC[C@H]2O[C@H]1n1ccc(=O)[nH]c1=O` [Compound 20A], the CC50 at 3 days in series [1] is > 50 µM. Further, the EC50 in series [2] was > 10 µM.

As for `CC(C)OC(=O)CCCCO[P@]1(=O)OC[C@H]2O[C@@H](n3ccc(=O)[nH]c3=O)[C@](C)(Cl)[C@@H]2O1` [Compound 18B], the CC50 at 3 days in series [1] is > 50 µM. Besides, in series [2], the EC50 lay in the range of 1 to 10 µM.

With `CC(C)OC(=O)CCCO[P@@]1(=O)OC[C@H]2O[C@@H](n3ccc(N)nc3=O)[C@](C)(N)[C@@H]2O1` [Compound 10A], the CC50 at 3 days in series [1] is > 50 µM. The EC50 in series [2] is > 10 µM.

Turning to `C#C[C@]1(C)[C@@H]2O[P@](=O)(OCCCCC(=O)OC3CCCC3)OC[C@H]2O[C@H]1n1ccc(=O)[nH]c1=O` [Compound 16B], in series [1], the half-maximal cytotoxic concentration (CC50) at 3 days is > 50 µM. Further, the EC50 in series [2] fell in the range of 1 to 10 µM.

Consider `C[C@@]1(N)[C@@H]2O[P@@](=O)(OCCCC(=O)OC3CCCC3)OC[C@H]2O[C@H]1n1ccc(=O)[nH]c1=O` [Compound 5A], for which the CC50 at 3 days in series [1] is > 50 µM. Also, the EC50 in series [2] is > 10 µM.

As for `CCOc1nc(N)nc2c1ncn2[C@@H]1O[C@@H]2CO[P@](=O)(OCCCC(=O)OC(C)C)O[C@H]2[C@@]1(C)Cl` [Compound 9A], the CC50 at 3 days in series [1] was > 50 µM. In series [2], the EC50 is > 10 µM.

Values taken from patent US10899788B2, “Cyclic phosphate substituted nucleoside compounds and methods of use thereof for the treatment of viral diseases” (MERCK SHARP & DOHME CORP., priority 2016, dated 2021).
